Reference: ChEMBL document CHEMBL1157133, “Design, synthesis, and interaction study of quinazoline-2(1H)-thione derivatives as novel potential Bcl-xL inhibitors” (J Med Chem, 2010)

Legend:
PC-3 = test: Cytotoxicity against human PC3 cells after 48 hrs by MTT assay; assay type: functional, cell-based; conditions: for EC50: PC-3, 48 h
Bcl-2-like protein 1 [1] = target: T1, Bcl-2-like protein 1 (Homo sapiens, UniProt Q07817); test: Inhibition of human Bcl-XL
K562 = test: cells; conditions: Homo sapiens, K562, 48 h
Description: Cytotoxicity against human K562 cells after 48 hrs by MTT assay

[2] = Cytotoxicity against human Bel7404 cells after 48 hrs by MTT assay; conditions: BEL-7404, 48 h
HepG2 = test: cells; conditions: Homo sapiens, HepG2, 48 h
Description: Cytotoxicity against human HepG2 cells after 48 hrs by MTT assay

OVCAR-3 = test: Cytotoxicity against human OVCAR-3 cells after 48 hrs by MTT assay; conditions: OVCAR-3, 48 h
A2780 = test: cells; conditions: Homo sapiens, A2780, 48 h
Description: Cytotoxicity against human A2780 cells after 48 hrs by MTT assay

[3] = target: Induced myeloid leukemia cell differentiation protein Mcl-1 homolog (Mus musculus, UniProt P97287); test: Displacement of FITC-labeled BH3 peptide from GST-tagged mouse Mcl1 after 1 hr by fluorescence polarization assay
[4] = target: Apoptosis regulator Bcl-2 (Homo sapiens, UniProt P10415); test: Displacement of FITC labeled BH3 peptide from His-tagged human BCL2 after 1 hr by fluorescence polarization assay
Bcl-2-like protein 1 [5] = target: T1, Bcl-2-like protein 1; test: Displacement of FITC-labeled BH3 peptide from human Bcl-XL after 1 hr by fluorescence polarization assay

T1 sequence (Q07817 whole entry): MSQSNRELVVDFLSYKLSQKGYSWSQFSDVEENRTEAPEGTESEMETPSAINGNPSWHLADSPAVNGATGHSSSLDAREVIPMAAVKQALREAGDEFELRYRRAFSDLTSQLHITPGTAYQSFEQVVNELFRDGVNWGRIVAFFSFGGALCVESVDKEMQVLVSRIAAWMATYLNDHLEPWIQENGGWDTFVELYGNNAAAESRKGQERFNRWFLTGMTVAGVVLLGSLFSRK
Chain of Induced myeloid leukemia cell differentiation protein Mcl-1 homolog (P97287 whole entry): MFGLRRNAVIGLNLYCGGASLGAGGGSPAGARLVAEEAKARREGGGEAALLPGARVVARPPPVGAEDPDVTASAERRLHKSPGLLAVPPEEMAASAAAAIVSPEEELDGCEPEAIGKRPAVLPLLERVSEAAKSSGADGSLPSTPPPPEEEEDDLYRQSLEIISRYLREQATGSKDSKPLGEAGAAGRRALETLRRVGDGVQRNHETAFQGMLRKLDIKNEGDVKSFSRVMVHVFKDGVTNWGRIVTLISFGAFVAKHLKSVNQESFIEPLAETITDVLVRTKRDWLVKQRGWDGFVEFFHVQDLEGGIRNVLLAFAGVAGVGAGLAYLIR
Chain of Apoptosis regulator Bcl-2 (P10415 whole entry): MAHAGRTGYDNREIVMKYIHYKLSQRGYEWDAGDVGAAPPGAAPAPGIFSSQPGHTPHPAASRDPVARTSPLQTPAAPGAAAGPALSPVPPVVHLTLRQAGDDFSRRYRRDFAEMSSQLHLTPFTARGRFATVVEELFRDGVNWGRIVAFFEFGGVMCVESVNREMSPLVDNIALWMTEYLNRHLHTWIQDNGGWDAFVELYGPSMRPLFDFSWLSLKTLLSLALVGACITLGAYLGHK

| SMILES | Activity (PC-3) | EC50 (PC-3) | IC50 (Bcl-2-like protein 1 [1]) | EC50 (K562) | EC50 [2] | EC50 (HepG2) | EC50 (OVCAR-3) | EC50 (A2780) | IC50 [3] | IC50 [4] | IC50 (Bcl-2-like protein 1 [5]) |
| --- | --- | --- | --- | --- | --- | --- | --- | --- | --- | --- | --- |
| COc1ccc2c(c1)CCC1=C2N=c2s/c(=C\c3ccc(-c4cccc(C(=O)O)c4)o3)c(=O)n2C1c1cccc(F)c1 (stereo not drawn) | Dose-dependent effect | 35.2 µM | > 100 µM |  |  |  |  |  |  |  |  |
| COc1ccccc1C1C2=C(N=c3s/c(=C\c4ccccc4OCC(=O)O)c(=O)n31)c1ccccc1CC2 (stereo not drawn) | Dose-dependent effect |  | 12.1 µM | 7.99 µM | 9.5 µM | 41.9 µM | 4.44 µM | 7.81 µM |  |  |  |
| COc1ccccc1C1C2=C(N=c3s/c(=C\c4ccc(OCC(=O)O)cc4)c(=O)n31)c1ccccc1CC2 (stereo not drawn) |  | 11.1 µM | 36 µM | 5.62 µM | 6.1 µM | 15.3 µM | 2.85 µM | 6.13 µM |  |  |  |
| O=C(O)COc1cccc(/C=c2\sc3n(c2=O)C(c2cccc(F)c2)C2=C(N=3)/C(=C/c3cccc(F)c3)CCC2)c1 (stereo not drawn) |  | 12 µM | > 100 µM | > 100 µM | 4.3 µM | 15.9 µM | 3.27 µM | 6.8 µM |  |  |  |
| O=C(O)c1cccc(-c2ccc(/C=c3\sc4n(c3=O)C(c3cccc([N+](=O)[O-])c3)C3=C(N=4)c4ccccc4CC3)o2)c1 (stereo not drawn) | Dose-dependent effect | 44.9 µM | 1.9 µM | 17.3 µM | 65.1 µM | 13.4 µM | 26.9 µM | 3.9 µM |  |  |  |
| O=C(O)COc1cccc(/C=c2\sc3n(c2=O)C(c2ccccc2)C2=C(N=3)c3ccccc3CC2)c1 (stereo not drawn) |  | > 100 µM | 10.3 µM | 7.04 µM | 7.8 µM | 14.5 µM | 2.73 µM | 5.49 µM |  |  |  |
| COc1ccccc1C1C2=C(N=c3s/c(=C\c4ccc(C(=O)O)cc4)c(=O)n31)c1ccccc1CC2 (stereo not drawn) |  | 63.5 µM | 12.6 µM | 16.1 µM | 9.7 µM | 45 µM | 3.35 µM | 7.94 µM |  |  |  |
| O=C(O)c1cccc(-c2ccc(/C=c3\sc4n(c3=O)C(c3ccc(F)cc3)C3=C(N=4)c4ccccc4CC3)o2)c1 (stereo not drawn) | Dose-dependent effect | 13.4 µM | 5.2 µM | 26.3 µM | 25.9 µM | 35.1 µM | 5.85 µM | 7.38 µM |  |  |  |
| COc1ccccc1C1C2=C(N=c3s/c(=C\c4ccc(-c5cccc(C(=O)O)c5)o4)c(=O)n31)c1ccccc1CC2 (stereo not drawn) |  | 23.2 µM | 5.3 µM | 20.8 µM | 140 µM | 35.6 µM | 9.06 µM | 4.94 µM |  |  |  |
| O=C(O)c1cccc(-c2ccc(/C=c3\sc4n(c3=O)C(c3cccc(F)c3)C3=C(N=4)c4ccccc4CC3)o2)c1 (stereo not drawn) | Dose-dependent effect | > 100 µM | 3 µM | > 100 µM | 51.3 µM | 15.4 µM | 12 µM | 5.81 µM | 8.6 µM | 3.2 µM | 3 µM |
| COc1ccccc1C1C2=C(N=c3sc(=Cc4ccc(C=CC(=O)O)cc4)c(=O)n31)c1ccccc1CC2 (stereo not drawn) | Dose-dependent effect | 17.3 µM | 12.7 µM | > 100 µM | 11.2 µM | 49.8 µM | 3.29 µM | 7.85 µM |  |  |  |
| O=C(O)COc1cccc(/C=c2\sc3n(c2=O)C(c2ccco2)C2=C(N=3)c3ccccc3CC2)c1 (stereo not drawn) | Dose-dependent effect | 10.2 µM | 40.4 µM | > 100 µM | 14 µM | 72.8 µM | 8.5 µM | 15.3 µM |  |  |  |
| COc1ccccc1C1C=C(c2ccccc2)N=c2s/c(=C\c3cccc(OCC(=O)O)c3)c(=O)n21 (stereo not drawn) |  | 65.2 µM | 72 µM | > 100 µM | > 500 µM | 175 µM | 22.2 µM | 9.98 µM |  |  |  |
| CC(C)C(C(=O)O)C1C(=O)/C(=C/c2ccc(Br)cc2)SC1=S (stereo not drawn) |  |  | 6.2 µM |  |  |  |  |  |  |  |  |
| COc1ccccc1C1C2=C(N=c3s/c(=C\c4cccc(OCC(=O)O)c4)c(=O)n31)c1cccc(OC(=O)c3ccccc3-c3ccccc3)c1CC2 (stereo not drawn) |  | 16.6 µM | > 100 µM |  |  |  |  |  |  |  |  |
| COc1ccccc1C1C2=C(N=c3s/c(=C\c4ccc(-c5cccc(C(=O)O)c5)cc4)c(=O)n31)c1ccccc1CC2 (stereo not drawn) |  | 67.1 µM | 26.7 µM | 9.41 µM | 4.5 µM | 7.2 µM | 7.17 µM | 2.23 µM |  |  |  |
| COc1ccc2c(c1)CCC1=C2N=c2s/c(=C\c3cccc(OCC(=O)O)c3)c(=O)n2C1c1ccccc1OC (stereo not drawn) |  | > 100 µM | > 100 µM |  |  |  |  |  |  |  |  |
| COc1ccccc1C1C2=C(N=c3s/c(=C\c4cccc(OCC(=O)O)c4)c(=O)n31)c1cccc(OCc3ccccc3)c1CC2 (stereo not drawn) |  | > 100 µM | > 100 µM |  |  |  |  |  |  |  |  |
| O=C(O)COc1cccc(/C=c2\sc3n(c2=O)C(c2cccc4ccccc24)C2=C(N=3)c3ccccc3CC2)c1 (stereo not drawn) |  | 68 µM | 19.7 µM | 6.33 µM | 3.1 µM | 19.9 µM | 2.21 µM | 7.52 µM |  |  |  |
| O=C(O)c1cccc(-c2ccc(/C=c3\sc4n(c3=O)C(c3ccccc3F)C3=C(N=4)c4ccccc4CC3)o2)c1 (stereo not drawn) |  | 31.2 µM | 6.2 µM | > 100 µM | > 500 µM | > 500 µM | 76.6 µM | > 100 µM |  |  |  |
| O=C(O)c1cccc(-c2ccc(/C=c3\sc4n(c3=O)C(c3ccco3)C3=C(N=4)c4ccccc4CC3)o2)c1 (stereo not drawn) | Dose-dependent effect | 79.5 µM | 35.9 µM | > 100 µM | > 500 µM | > 500 µM | > 100 µM | 15.8 µM |  |  |  |
| O=C(O)c1cccc(-c2ccc(/C=c3\sc4n(c3=O)C(c3cccc5ccccc35)C3=C(N=4)c4ccccc4CC3)o2)c1 (stereo not drawn) | Dose-dependent effect | 24.2 µM | 13.4 µM | 22.9 µM | 204 µM | > 500 µM | 18.7 µM | 6.34 µM |  |  |  |
| O=C(O)c1cccc(-c2ccc(/C=c3\sc4n(c3=O)C(c3ccccc3)C3=C(N=4)c4ccccc4CC3)o2)c1 (stereo not drawn) |  | > 100 µM | 12.6 µM | > 100 µM | 71.7 µM | 13.6 µM | 18.9 µM | 7.46 µM |  |  |  |
| CCOC(=O)COc1cccc(/C=c2\sc3n(c2=O)C(c2ccccc2OC)C2=C(N=3)c3ccccc3CC2)c1 (stereo not drawn) |  | 45 µM | 100 µM | > 100 µM | 92.3 µM | 32.3 µM | 47.5 µM | 17.8 µM |  |  |  |
| O=C(O)c1cccc(-c2ccc(/C=c3\sc4n(c3=O)C(c3cccc(F)c3)C3=C(N=4)/C(=C/c4cccc(F)c4)CCC3)o2)c1 (stereo not drawn) |  | 51.4 µM | > 100 µM | > 100 µM | 3.8 µM | 8 µM | 11.7 µM | 5.36 µM |  |  |  |
| O=C(O)COc1cccc(/C=c2\sc3n(c2=O)C(c2cccc(F)c2)C2=C(N=3)c3ccccc3CC2)c1 (stereo not drawn) | Dose-dependent effect | > 100 µM | 5.4 µM | > 100 µM | 50.9 µM | 186 µM | 2.8 µM | 16.9 µM |  |  |  |
